# Reference: paper PMC5218480 (PLoS ONE, 2017)
# Test system: MV-4-11 cells
# Assay: Gene expression microarray analysis (Affymetrix PrimeView) and GSEA
# Format: cell-based, human
# Design: RFU PODN (11730768_x_at) / Fold change /veh PODN (11730768_x_at) / RFU LINC00158 (11744669_a_at) / Fold change /veh LINC00158 (11744669_a_at) / RFU DUSP10 (11751237_a_at) / Fold change /veh DUSP10 (11751237_a_at) / RFU ID3 (11757404_x_at) / Fold change /veh ID3 (11757404_x_at) / RFU PLEKHG5 (11737974_s_at) / Fold change /veh PLEKHG5 (11737974_s_at) / RFU LRRC4B (11730491_at) / Fold change /veh LRRC4B (11730491_at) / RFU GIMAP4 (11747438_a_at) / Fold change /veh GIMAP4 (11747438_a_at) / RFU KRT8 (11758183_x_at) / Fold change /veh KRT8 (11758183_x_at) / RFU CNN1 (11734310_a_at) / Fold change /veh CNN1 (11734310_a_at) / RFU VPS37D (11726825_at) / Fold change /veh VPS37D (11726825_at) / RFU C10orf10 (11716522_x_at) / Fold change /veh C10orf10 (11716522_x_at) / RFU KIR2DL2 /// KIR2DL4 /// KIR2DL5A /// KIR2DL5B /// KIR2DS1 /// KIR2DS2 /// KIR2DS3 /// KIR2DS4 /// KIR3DL3 /// KIR3DL3 /// KIR3DS1 (11738374_at) / Fold change /veh KIR2DL2 /// KIR2DL4 /// KIR2DL5A /// KIR2DL5B /// KIR2DS1 /// KIR2DS2 /// KIR2DS3 /// KIR2DS4 /// KIR3DL3 /// KIR3DL3 /// KIR3DS1 (11738374_at) / RFU C1QL1 (11718748_at) / Fold change /veh C1QL1 (11718748_at) / RFU TMPRSS4 (11747572_a_at) / Fold change /veh TMPRSS4 (11747572_a_at) / RFU HAMP (11756126_x_at) / Fold change /veh HAMP (11756126_x_at) / RFU RNFT2 (11725882_a_at) / Fold change /veh RNFT2 (11725882_a_at) / RFU NR4A2 (11747474_a_at) / Fold change /veh NR4A2 (11747474_a_at) / RFU ABCC12 (11746883_a_at) / Fold change /veh ABCC12 (11746883_a_at) / RFU TMEM136 (11760407_x_at) / Fold change /veh TMEM136 (11760407_x_at) / RFU CLDN22 /// WWC2 (11732394_at) / Fold change /veh CLDN22 /// WWC2 (11732394_at) / RFU HLA-DPB1 (11760878_x_at) / Fold change /veh HLA-DPB1 (11760878_x_at) / RFU SPINT1 (11716480_a_at) / Fold change /veh SPINT1 (11716480_a_at) / RFU GAP43 (11754022_s_at) / Fold change /veh GAP43 (11754022_s_at) / RFU A4GNT (11735810_at) / Fold change /veh A4GNT (11735810_at) / RFU PRB3 (11715151_x_at) / Fold change /veh PRB3 (11715151_x_at) / RFU TUBB4B (11761932_at) / Fold change /veh TUBB4B (11761932_at) / RFU CAPN14 (11732068_a_at) / Fold change /veh CAPN14 (11732068_a_at) / RFU TMCC2 (11721928_a_at) / Fold change /veh TMCC2 (11721928_a_at) / RFU IRGQ (11745062_a_at) / Fold change /veh IRGQ (11745062_a_at) / RFU FAM174B (11720279_a_at) / Fold change /veh FAM174B (11720279_a_at) / RFU TMPRSS4 (11748680_a_at) / Fold change /veh TMPRSS4 (11748680_a_at) / RFU FAM212B (11763350_a_at) / Fold change /veh FAM212B (11763350_a_at) / RFU PLEKHG5 (11743358_a_at) / Fold change /veh PLEKHG5 (11743358_a_at) / RFU ZSCAN30 (11745921_a_at) / Fold change /veh ZSCAN30 (11745921_a_at) / RFU CMKLR1 (11741424_a_at) / Fold change /veh CMKLR1 (11741424_a_at) / RFU LOC101060620 /// MAPK8IP1 (11723275_at) / Fold change /veh LOC101060620 /// MAPK8IP1 (11723275_at) / RFU SPTSSB (11747773_x_at) / Fold change /veh SPTSSB (11747773_x_at) / RFU PRSS12 (11739890_at) / Fold change /veh PRSS12 (11739890_at) / RFU BIN1 (11741810_x_at) / Fold change /veh BIN1 (11741810_x_at) / RFU WNT11 (11732464_a_at) / Fold change /veh WNT11 (11732464_a_at) / RFU C10orf10 (11716521_a_at) / Fold change /veh C10orf10 (11716521_a_at) / RFU C5orf56 (11738089_at) / Fold change /veh C5orf56 (11738089_at) / RFU CYB561 (11721691_x_at) / Fold change /veh CYB561 (11721691_x_at) / RFU ANKRD19P (11752326_a_at) / Fold change /veh ANKRD19P (11752326_a_at) / RFU OR2T12 /// OR2T33 /// OR2T8 (11738714_s_at) / Fold change /veh OR2T12 /// OR2T33 /// OR2T8 (11738714_s_at) / RFU VCAN (11748164_a_at) / Fold change /veh VCAN (11748164_a_at) / RFU JSRP1 (11732532_at) / Fold change /veh JSRP1 (11732532_at) / RFU KRTAP10-11 (11738290_x_at) / Fold change /veh KRTAP10-11 (11738290_x_at) / RFU MYO3A (11730013_a_at) / Fold change /veh MYO3A (11730013_a_at) / RFU EBF3 (11725865_a_at) / Fold change /veh EBF3 (11725865_a_at) / RFU CAMK2N1 (11719241_x_at) / Fold change /veh CAMK2N1 (11719241_x_at) / RFU C5orf56 (11738088_a_at) / Fold change /veh C5orf56 (11738088_a_at) / RFU OLFML3 (11715873_a_at) / Fold change /veh OLFML3 (11715873_a_at) / RFU LOC100653217 /// NTM (11731650_a_at) / Fold change /veh LOC100653217 /// NTM (11731650_a_at) / RFU MAPK11 (11762145_a_at) / Fold change /veh MAPK11 (11762145_a_at) / RFU FIZ1 (11724087_x_at) / Fold change /veh FIZ1 (11724087_x_at) / RFU OASL (11726364_x_at) / Fold change /veh OASL (11726364_x_at) / RFU SOX15 (11748057_x_at) / Fold change /veh SOX15 (11748057_x_at) / RFU CD79A (11719716_a_at) / Fold change /veh CD79A (11719716_a_at) / RFU HIST1H1D (11736915_at) / Fold change /veh HIST1H1D (11736915_at) / RFU CASKIN2 (11723855_a_at) / Fold change /veh CASKIN2 (11723855_a_at) / RFU LOC730098 (11760151_x_at) / Fold change /veh LOC730098 (11760151_x_at) / RFU OR4N2 (11742367_at) / Fold change /veh OR4N2 (11742367_at) / RFU PRRT2 (11749266_a_at) / Fold change /veh PRRT2 (11749266_a_at) / RFU SNX32 (11753110_a_at) / Fold change /veh SNX32 (11753110_a_at) / RFU CDHR5 (11726645_a_at) / Fold change /veh CDHR5 (11726645_a_at) / RFU RCAN1 (11760418_a_at) / Fold change /veh RCAN1 (11760418_a_at) / RFU FAM167A (11723789_a_at) / Fold change /veh FAM167A (11723789_a_at) / RFU FAM26E (11764081_at) / Fold change /veh FAM26E (11764081_at) / RFU ISYNA1 (11749810_s_at) / Fold change /veh ISYNA1 (11749810_s_at) / RFU ACY1 (11761880_at) / Fold change /veh ACY1 (11761880_at) / RFU 11764098_at / Fold change /veh 11764098_at / RFU SAMD14 (11745864_x_at) / Fold change /veh SAMD14 (11745864_x_at) / RFU NPB (11741838_a_at) / Fold change /veh NPB (11741838_a_at) / RFU TMPRSS6 (11731388_a_at) / Fold change /veh TMPRSS6 (11731388_a_at) / RFU KRTAP10-2 (11738614_at) / Fold change /veh KRTAP10-2 (11738614_at) / RFU ARHGAP8 /// PRR5-ARHGAP8 (11727945_x_at) / Fold change /veh ARHGAP8 /// PRR5-ARHGAP8 (11727945_x_at) / RFU KRTAP5-7 /// NADSYN1 (11734609_at) / Fold change /veh KRTAP5-7 /// NADSYN1 (11734609_at) / RFU RASL12 (11751679_a_at) / Fold change /veh RASL12 (11751679_a_at) / RFU CDKN2B (11736163_a_at) / Fold change /veh CDKN2B (11736163_a_at) / RFU PRF1 (11729649_at) / Fold change /veh PRF1 (11729649_at) / RFU, ZNF638 /// ZNF638-IT1 / Fold change vs veh, ZNF638 /// ZNF638-IT1 / RFU, PANK3 / Fold change vs veh, PANK3 / RFU, SH3YL1 / Fold change vs veh, SH3YL1 / RFU, ZEB2 / Fold change vs veh, ZEB2 / RFU, NRIP1 / Fold change vs veh, NRIP1 / RFU, PTTG1IP / Fold change vs veh, PTTG1IP / RFU, CAPN2 / Fold change vs veh, CAPN2 / RFU, MED14 / Fold change vs veh, MED14 / RFU, SNORA58 / Fold change vs veh, SNORA58 / RFU, C1orf63 / Fold change vs veh, C1orf63 / RFU, LRRFIP1 / Fold change vs veh, LRRFIP1 / RFU, NDUFAF7 / Fold change vs veh, NDUFAF7 / RFU, SLC12A2 / Fold change vs veh, SLC12A2 / RFU, IBTK / Fold change vs veh, IBTK / RFU, ESF1 / Fold change vs veh, ESF1 / Fold change vs veh, TMEM50B / RFU, TAOK1 / Fold change vs veh, TAOK1 / RFU, ACBD3 / Fold change vs veh, ACBD3 / RFU, TMA16 / Fold change vs veh, TMA16 / RFU, RWDD3 / Fold change vs veh, RWDD3 / RFU, BCAT1 / Fold change vs veh, BCAT1 / RFU, EDEM3 / Fold change vs veh, EDEM3 / RFU, TMEM33 / Fold change vs veh, TMEM33 / RFU, WDR75 / Fold change vs veh, WDR75 / RFU, AHCTF1 / Fold change vs veh, AHCTF1 / RFU, TFRC / Fold change vs veh, TFRC / RFU, ZDHHC17 / Fold change vs veh, ZDHHC17 / RFU, NOM1 / Fold change vs veh, NOM1 / RFU, ARL8B / Fold change vs veh, ARL8B / RFU, ZBTB11 / Fold change vs veh, ZBTB11 / RFU, TAMM41 / Fold change vs veh, TAMM41 / RFU, KIAA1704 /// LOC100996395 / Fold change vs veh, KIAA1704 /// LOC100996395 / RFU, ING1 / Fold change vs veh, ING1 / RFU, TRMT61B / Fold change vs veh, TRMT61B / RFU, FUBP3 / Fold change vs veh, FUBP3 / RFU, TP53 / Fold change vs veh, TP53 / RFU, TNKS2 / Fold change vs veh, TNKS2 / RFU, ZFP14 / Fold change vs veh, ZFP14 / RFU, ACTR2 / Fold change vs veh, ACTR2 / RFU, PPP3R1 / Fold change vs veh, PPP3R1 / RFU, PIK3R1 / Fold change vs veh, PIK3R1 / RFU, HNRNPA1 / Fold change vs veh, HNRNPA1 / RFU, RNF170 / Fold change vs veh, RNF170 / RFU, ZNF28 / Fold change vs veh, ZNF28 / RFU, RNGTT / Fold change vs veh, RNGTT / RFU, OGT / Fold change vs veh, OGT / RFU, BRD1 / Fold change vs veh, BRD1 / RFU, MARS / Fold change vs veh, MARS / RFU, ZNF655 / Fold change vs veh, ZNF655 / RFU, FAHD1 / Fold change vs veh, FAHD1 / RFU, BDP1 / Fold change vs veh, BDP1 / RFU, LRRCC1 / Fold change vs veh, LRRCC1 / RFU, ARID1A / Fold change vs veh, ARID1A / RFU, ZNF146 / Fold change vs veh, ZNF146 / RFU, ZNF330 / Fold change vs veh, ZNF330 / RFU, GPN3 / Fold change vs veh, GPN3 / RFU, C9orf123 / Fold change vs veh, C9orf123 / RFU, N4BP2L2 / Fold change vs veh, N4BP2L2 / RFU, ARFIP1 / Fold change vs veh, ARFIP1 / RFU, FAM179B / Fold change vs veh, FAM179B / RFU, BCL10 / Fold change vs veh, BCL10 / RFU, UHRF1BP1L / Fold change vs veh, UHRF1BP1L / RFU, BET1 / Fold change vs veh, BET1 / RFU, CNOT2 / Fold change vs veh, CNOT2 / RFU, ZNF268 / Fold change vs veh, ZNF268 / Fold change vs veh, ZNF507 / RFU, DGCR2 / Fold change vs veh, DGCR2 / RFU, WDSUB1 / Fold change vs veh, WDSUB1 / Fold change vs veh, HSP90B1 /// MIR3652 / RFU, ADSS / Fold change vs veh, ADSS / RFU, GK / Fold change vs veh, GK / RFU, ZNF148 / Fold change vs veh, ZNF148 / RFU, TAF9 / Fold change vs veh, TAF9 / RFU, SLC1A5 / Fold change vs veh, SLC1A5 / RFU, SLMO2 / Fold change vs veh, SLMO2 / RFU, ABCC4 / Fold change vs veh, ABCC4 / RFU, LOC101060439 /// RAP1B / Fold change vs veh, LOC101060439 /// RAP1B / RFU, RFX7 / Fold change vs veh, RFX7 / RFU, GTPBP10 / Fold change vs veh, GTPBP10 / RFU, CNEP1R1 / Fold change vs veh, CNEP1R1 / RFU, BIVM-ERCC5 /// ERCC5 / Fold change vs veh, BIVM-ERCC5 /// ERCC5 / RFU, ILF3 / Fold change vs veh, ILF3 / RFU 11762660_at / Fold change /veh 11762660_at / RFU VCAN (11757783_s_at) / Fold change /veh VCAN (11757783_s_at) / RFU DDX43 (11728927_at) / Fold change /veh DDX43 (11728927_at) / RFU KRT8 (11758188_x_at) / Fold change /veh KRT8 (11758188_x_at) / RFU NKD1 (11759106_at) / Fold change /veh NKD1 (11759106_at) / RFU SRD5A1 (11742802_a_at) / Fold change /veh SRD5A1 (11742802_a_at) / RFU TPSAB1 /// TPSB2 (11721975_s_at) / Fold change /veh TPSAB1 /// TPSB2 (11721975_s_at) / RFU GSTM3 (11746129_a_at) / Fold change /veh GSTM3 (11746129_a_at) / RFU IL23R (11737362_x_at) / Fold change /veh IL23R (11737362_x_at) / RFU TMEM51 (11727254_a_at) / Fold change /veh TMEM51 (11727254_a_at) / RFU PIWIL2 (11732686_x_at) / Fold change /veh PIWIL2 (11732686_x_at) / RFU ORM1 (11744905_x_at) / Fold change /veh ORM1 (11744905_x_at) / RFU CCDC152 (11743942_at) / Fold change /veh CCDC152 (11743942_at) / RFU ECM1 (11717891_a_at) / Fold change /veh ECM1 (11717891_a_at) / RFU IL23R (11748794_a_at) / Fold change /veh IL23R (11748794_a_at) / RFU TNFAIP8L3 (11732012_x_at) / Fold change /veh TNFAIP8L3 (11732012_x_at) / RFU MBOAT4 (11741988_at) / Fold change /veh MBOAT4 (11741988_at) / RFU 11764193_at / Fold change /veh 11764193_at / RFU TMEM53 (11763286_at) / Fold change /veh TMEM53 (11763286_at) / RFU MAGEB2 (11727129_at) / Fold change /veh MAGEB2 (11727129_at) / RFU TMEM200A (11744735_a_at) / Fold change /veh TMEM200A (11744735_a_at) / RFU CCDC152 (11751479_a_at) / Fold change /veh CCDC152 (11751479_a_at) / RFU FAM211A (11726209_a_at) / Fold change /veh FAM211A (11726209_a_at) / RFU RGS16 (11746705_a_at) / Fold change /veh RGS16 (11746705_a_at) / RFU VCAN (11755009_s_at) / Fold change /veh VCAN (11755009_s_at) / RFU RHOB (11743442_s_at) / Fold change /veh RHOB (11743442_s_at) / RFU RGS16 (11720943_a_at) / Fold change /veh RGS16 (11720943_a_at) / RFU RGS16 (11720944_at) / Fold change /veh RGS16 (11720944_at) / RFU, VPS4B / Fold change vs veh, VPS4B / RFU, CREB1 / Fold change vs veh, CREB1 / RFU, DNAJC13 / Fold change vs veh, DNAJC13 / RFU, GNAQ / Fold change vs veh, GNAQ / RFU, CDK5R1 / Fold change vs veh, CDK5R1 / RFU, ZRANB3 / Fold change vs veh, ZRANB3 / RFU, CUL4A / Fold change vs veh, CUL4A / RFU, CCNY / Fold change vs veh, CCNY / RFU, UFL1 / Fold change vs veh, UFL1 / RFU, COG3 / Fold change vs veh, COG3 / RFU, DIAPH2 / Fold change vs veh, DIAPH2 / RFU, SKA2 / Fold change vs veh, SKA2 / RFU, AFF3 / Fold change vs veh, AFF3 / RFU, LMF1 / Fold change vs veh, LMF1 / RFU, IPO11 / Fold change vs veh, IPO11 / RFU, DFFB / Fold change vs veh, DFFB / RFU, FOXP1 / Fold change vs veh, FOXP1 / RFU, CARD8 / Fold change vs veh, CARD8 / RFU, STRN3 / Fold change vs veh, STRN3 / RFU, ADK / Fold change vs veh, ADK / RFU, RASSF2 / Fold change vs veh, RASSF2 / RFU, WIPF1 / Fold change vs veh, WIPF1 / RFU, LARP1B / Fold change vs veh, LARP1B / RFU, RASA1 / Fold change vs veh, RASA1 / RFU, RB1 / Fold change vs veh, RB1 / RFU, PPFIA1 / Fold change vs veh, PPFIA1 / RFU, MAT2A / Fold change vs veh, MAT2A / RFU, CCT5 / Fold change vs veh, CCT5 / RFU, WDR92 / Fold change vs veh, WDR92 / RFU, CUX1 / Fold change vs veh, CUX1 / RFU, TTC7A / Fold change vs veh, TTC7A / RFU, TMEM135 / Fold change vs veh, TMEM135 / RFU, DEPTOR / Fold change vs veh, DEPTOR / RFU, CPM / Fold change vs veh, CPM / RFU, DNAJB6 / Fold change vs veh, DNAJB6 / RFU, CACNA2D3 / Fold change vs veh, CACNA2D3 / RFU, DTX4 / Fold change vs veh, DTX4 / RFU, TFCP2 / Fold change vs veh, TFCP2 / RFU, GMCL1 /// GMCL1P1 / Fold change vs veh, GMCL1 /// GMCL1P1 / RFU, AEBP2 / Fold change vs veh, AEBP2 / RFU, SNHG1 /// SNORD22 /// SNORD25 /// SNORD26 /// SNORD27 /// SNORD28 /// SNORD29 /// SNORD31 / Fold change vs veh, SNHG1 /// SNORD22 /// SNORD25 /// SNORD26 /// SNORD27 /// SNORD28 /// SNORD29 /// SNORD31 / Fold change (Aza/veh), C12orf56 (ProbeSet 11735607_a_at) / Fold change (ACY-1035/veh), C12orf56 (ProbeSet 11735607_a_at) / Fold change (Aza/veh), FGFR1OP (ProbeSet 11751329_s_at) / Fold change (ACY-1035/veh), FGFR1OP (ProbeSet 11751329_s_at) / Fold change (Aza/veh), VPS36 (ProbeSet 11739960_a_at) / Fold change (ACY-1035/veh), VPS36 (ProbeSet 11739960_a_at) / RFU SYPL1 (11715823_x_at) / Fold change /veh SYPL1 (11715823_x_at) / RFU IGFBP7 (11715501_s_at) / Fold change /veh IGFBP7 (11715501_s_at) / RFU REEP3 (11722064_at) / Fold change /veh REEP3 (11722064_at) / RFU IGLL1 (11728026_x_at) / Fold change /veh IGLL1 (11728026_x_at): dose or concentration left out as unconfirmed
# Details: ProbeSet 11746640_a_at; LIST D
smiles,measurement,value
Nc1ncn([C@@H]2O[C@H](CO)[C@@H](O)[C@H]2O)c(=O)n1 [azacitidine],"RFU, RASSF2",35.94 RFU
